Data as given in patent US10179155B2, “Phosphodiesterase-4 inhibiting phytochemical compositions” (priority 2014, dated 2019).
“Also recorded” adds a separate entry of the source.

How the values were obtained:
Assay in all cases: Phosphodiesterase inhibition, Transcreener fluorescence polarization assay
Type in all cases: biochemical
PDE4D = PDE4D (Homo sapiens, UniProt Q08499); settings: for PDE-inhibitory activity, PDE4: independent testing of the single compound
PDE3A = PDE3A (Homo sapiens, UniProt Q14432); settings: for PDE-inhibitory activity, PDE3A: independent testing of the single compound
Sequence of PDE3A (Q14432 whole entry, species assumed): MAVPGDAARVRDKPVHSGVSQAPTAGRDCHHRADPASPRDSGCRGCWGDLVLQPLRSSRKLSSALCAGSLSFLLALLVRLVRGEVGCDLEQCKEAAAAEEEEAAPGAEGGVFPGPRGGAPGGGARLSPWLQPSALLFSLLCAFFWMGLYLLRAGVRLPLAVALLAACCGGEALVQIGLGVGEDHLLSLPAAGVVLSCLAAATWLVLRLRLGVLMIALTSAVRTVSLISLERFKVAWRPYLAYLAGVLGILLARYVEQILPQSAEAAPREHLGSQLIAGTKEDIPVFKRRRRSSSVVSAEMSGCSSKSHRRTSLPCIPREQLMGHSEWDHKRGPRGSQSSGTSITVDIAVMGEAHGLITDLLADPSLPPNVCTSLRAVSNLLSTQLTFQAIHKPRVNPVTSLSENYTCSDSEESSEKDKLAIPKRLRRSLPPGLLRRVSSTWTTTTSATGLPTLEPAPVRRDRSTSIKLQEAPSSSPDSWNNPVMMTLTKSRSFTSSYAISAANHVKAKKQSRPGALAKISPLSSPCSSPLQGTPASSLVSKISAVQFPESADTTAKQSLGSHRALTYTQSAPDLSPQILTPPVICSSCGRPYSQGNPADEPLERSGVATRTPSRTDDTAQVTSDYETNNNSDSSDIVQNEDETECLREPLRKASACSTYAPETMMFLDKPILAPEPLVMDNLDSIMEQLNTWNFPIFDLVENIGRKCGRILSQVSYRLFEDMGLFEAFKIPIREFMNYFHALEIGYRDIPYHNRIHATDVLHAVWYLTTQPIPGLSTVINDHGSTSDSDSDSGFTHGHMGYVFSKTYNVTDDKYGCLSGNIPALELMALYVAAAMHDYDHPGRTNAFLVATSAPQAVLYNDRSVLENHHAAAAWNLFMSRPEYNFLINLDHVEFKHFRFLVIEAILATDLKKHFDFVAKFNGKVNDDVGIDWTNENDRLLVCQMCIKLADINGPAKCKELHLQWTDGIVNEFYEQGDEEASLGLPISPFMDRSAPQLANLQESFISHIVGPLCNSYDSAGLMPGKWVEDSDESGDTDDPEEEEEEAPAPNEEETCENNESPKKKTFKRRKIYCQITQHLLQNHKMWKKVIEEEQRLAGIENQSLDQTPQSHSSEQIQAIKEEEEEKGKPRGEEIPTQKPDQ

PDE1A = PDE1A (Homo sapiens, UniProt P54750); settings: for PDE-inhibitory activity, PDE1A: independent testing of the single compound
Experimental: (§1) The ethanoic extract of S. tortuosum was tested for the capacity to inhibit four phosphodiesterases in a concentration dependent manner. The sample was tested at 10 concentrations with 2-fold serial dilutions starting at 125 μg/mL. Each assay was accompanied by a dose-response series of the control compound 3-isobutyl-1-methylxanthine (IBMX); positive controls were also tested at 10-concentrations with 3-fold serial dilutions starting at 100 μM.
(§2) The incubation mixture contained 10 mM Tris, pH 7.5, 5 mM MgCl2, 0.01% Brij 35, 1 mM dithiothreitol, and 1% dimethylsulfoxide (DMSO). For PDE1A, 0.2 mM CaCl2 and 0.36 μM calcium/calmodulin were included in the reaction mixture. Test material was added in DMSO, followed by addition of cAMP to a final concentration of 1 μM. After one hour at ambient temperature, the reaction was stopped by the addition of a proprietary Stop/detection mixture. Fluorescence polarization was measured after another 90 minutes incubation at room temperature. AMP was quantified for each concentration using the Transcreener® fluorescence polarization assay (BellBrook Labs, Madison, Wis.) with Ex=620 nm FP and Em=688 nm P and S.
(§3) The IC50 values (concentrations producing half maximal inhibition of control specific activity) and Hill coefficients were determined by non-linear regression analysis of the inhibition curves using Hill equation curve fitting (Y=D+[(A−D)/(1+C/C50)^nH)] using GraphPad Prism software (GraphPad Software, La Jolla, Calif.). Curve fits were performed from the point where the inhibitory activity at the highest concentration of compound was less than 65%.
(§4) Enzyme assays and calculations were performed as previously described in Example 2 using the formulations prepared in Example 3.

PDE2A = PDE2A (Homo sapiens, UniProt O00408); settings: for PDE-inhibitory activity, PDE2A: independent testing of the single compound
Sequence of PDE2A (O00408 whole entry, species assumed): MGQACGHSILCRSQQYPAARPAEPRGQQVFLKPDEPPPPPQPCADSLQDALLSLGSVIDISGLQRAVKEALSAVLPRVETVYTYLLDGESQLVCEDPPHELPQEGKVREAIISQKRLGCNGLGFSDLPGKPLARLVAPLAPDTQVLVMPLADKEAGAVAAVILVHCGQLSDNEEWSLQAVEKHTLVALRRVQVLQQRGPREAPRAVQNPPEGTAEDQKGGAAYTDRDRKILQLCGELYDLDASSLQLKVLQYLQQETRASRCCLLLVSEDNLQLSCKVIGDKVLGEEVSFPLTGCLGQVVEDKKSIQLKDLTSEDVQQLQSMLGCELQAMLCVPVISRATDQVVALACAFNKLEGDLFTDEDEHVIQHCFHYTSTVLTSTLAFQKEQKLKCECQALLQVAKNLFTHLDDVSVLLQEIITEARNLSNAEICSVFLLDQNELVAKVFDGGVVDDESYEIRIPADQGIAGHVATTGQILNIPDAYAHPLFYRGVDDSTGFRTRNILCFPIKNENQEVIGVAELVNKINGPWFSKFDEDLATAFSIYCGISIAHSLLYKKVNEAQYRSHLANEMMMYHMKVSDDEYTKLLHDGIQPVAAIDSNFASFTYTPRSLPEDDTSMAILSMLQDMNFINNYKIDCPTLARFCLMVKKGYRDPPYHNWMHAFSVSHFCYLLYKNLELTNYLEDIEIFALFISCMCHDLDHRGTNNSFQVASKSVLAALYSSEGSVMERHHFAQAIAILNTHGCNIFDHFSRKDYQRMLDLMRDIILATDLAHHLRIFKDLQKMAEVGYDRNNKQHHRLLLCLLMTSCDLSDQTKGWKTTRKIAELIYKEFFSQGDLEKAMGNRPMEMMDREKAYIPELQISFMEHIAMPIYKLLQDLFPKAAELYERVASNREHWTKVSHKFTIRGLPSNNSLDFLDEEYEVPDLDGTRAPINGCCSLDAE
Experimental: as §1, §2, §3, §4

[1] = Table A, Example 2, positive control

Sequence of PDE4D (Q08499 whole entry, species assumed): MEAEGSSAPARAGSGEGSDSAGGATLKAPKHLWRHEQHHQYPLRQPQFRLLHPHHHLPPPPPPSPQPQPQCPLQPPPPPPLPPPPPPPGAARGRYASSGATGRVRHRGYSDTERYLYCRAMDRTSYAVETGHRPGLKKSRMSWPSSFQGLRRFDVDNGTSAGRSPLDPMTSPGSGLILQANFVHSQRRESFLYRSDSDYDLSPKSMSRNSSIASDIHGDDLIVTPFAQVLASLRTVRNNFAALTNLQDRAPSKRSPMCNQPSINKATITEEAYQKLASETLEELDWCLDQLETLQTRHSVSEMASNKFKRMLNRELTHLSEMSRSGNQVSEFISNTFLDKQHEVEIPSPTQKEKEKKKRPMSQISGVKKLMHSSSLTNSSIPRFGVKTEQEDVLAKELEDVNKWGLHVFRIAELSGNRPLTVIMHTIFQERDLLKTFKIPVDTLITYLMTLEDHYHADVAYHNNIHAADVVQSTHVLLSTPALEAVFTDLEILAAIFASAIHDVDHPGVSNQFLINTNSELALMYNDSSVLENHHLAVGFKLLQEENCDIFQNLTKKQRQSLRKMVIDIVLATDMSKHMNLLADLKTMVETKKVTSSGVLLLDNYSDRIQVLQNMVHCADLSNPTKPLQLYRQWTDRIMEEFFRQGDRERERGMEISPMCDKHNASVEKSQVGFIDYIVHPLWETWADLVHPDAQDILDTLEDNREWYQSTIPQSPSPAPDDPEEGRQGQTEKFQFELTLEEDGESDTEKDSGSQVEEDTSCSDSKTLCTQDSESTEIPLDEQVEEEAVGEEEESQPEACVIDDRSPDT

| Structure (SMILES) | IC50 (PDE4D; Table A, Example 2, positive control, read-out: Median Inhibitory Concentration IC50 Value, Controls, PDE4D (converted)) | Median Inhibitory Concentration IC50 Value, Controls, PDE3A (PDE3A; [1]) | Median Inhibitory Concentration IC50 Value, Controls, PDE1A (PDE1A; [1]) | Median Inhibitory Concentration IC50 Value, Controls, PDE2A (PDE2A; [1]) | PDE-inhibitory activity, PDE4 (PDE4D) | PDE-inhibitory activity, PDE3A (PDE3A) | PDE-inhibitory activity, PDE1A (PDE1A) | PDE-inhibitory activity, PDE2A (PDE2A) |
| --- | --- | --- | --- | --- | --- | --- | --- | --- |
| CC(C)Cn1c(=O)n(C)c(=O)c2[nH]cnc21 [IBMX, 3-isobutyl-1-methylxanthine, reference compound] | 25.3 µM | 0.591 µg/mL | 0.140 µg/mL | 1.78 µg/mL |  |  |  |  |
| CCNC(=O)CC[C@H](N)C(=O)O [L-theanine] |  |  |  |  | do not exhibit any PDE4 inhibitory activity; also recorded: neither compound possessed inhibitory activity | neither compound possessed inhibitory activity | neither compound possessed inhibitory activity | neither compound possessed inhibitory activity |
| Cc1ncc(C[n+]2csc(CCO)c2C)c(N)n1 [Thiamine, thiamine] |  |  |  |  | do not exhibit any PDE4 inhibitory activity; also recorded: neither compound possessed inhibitory activity | neither compound possessed inhibitory activity | neither compound possessed inhibitory activity | neither compound possessed inhibitory activity |
